Data on 28 compounds can be found in US11123337B2, “4-methylsulfonyl-substituted piperidine urea compounds” (MYOKARDIA, INC., priority 2015, dated 2021).

This assay concerns the target bovine cardiac myosin (Bos taurus, UniProt Q9BE39). The experiment in a line: Myosin activation assay (PK/LDH-coupled ATPase, bovine cardiac myofibrils). The class given is biochemical. Particulars: AC20 = concentration at which total response is increased by twenty percent. A digest of the protocol: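 Values are the concentrations raising the ATPase rate by 20% or 50% over DMSO, from 10-point dose responses fitted with four parameters. Rate is NADH loss at 340 nm via PK/LDH coupling, read 15 min at room temperature, in pH 6.8 PIPES with 50 μM ATP. Bovine cardiac myofibrils were held at pCa ~6 or pCa 10.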

bovine cardiac myosin, sequence (Q9BE39 whole entry): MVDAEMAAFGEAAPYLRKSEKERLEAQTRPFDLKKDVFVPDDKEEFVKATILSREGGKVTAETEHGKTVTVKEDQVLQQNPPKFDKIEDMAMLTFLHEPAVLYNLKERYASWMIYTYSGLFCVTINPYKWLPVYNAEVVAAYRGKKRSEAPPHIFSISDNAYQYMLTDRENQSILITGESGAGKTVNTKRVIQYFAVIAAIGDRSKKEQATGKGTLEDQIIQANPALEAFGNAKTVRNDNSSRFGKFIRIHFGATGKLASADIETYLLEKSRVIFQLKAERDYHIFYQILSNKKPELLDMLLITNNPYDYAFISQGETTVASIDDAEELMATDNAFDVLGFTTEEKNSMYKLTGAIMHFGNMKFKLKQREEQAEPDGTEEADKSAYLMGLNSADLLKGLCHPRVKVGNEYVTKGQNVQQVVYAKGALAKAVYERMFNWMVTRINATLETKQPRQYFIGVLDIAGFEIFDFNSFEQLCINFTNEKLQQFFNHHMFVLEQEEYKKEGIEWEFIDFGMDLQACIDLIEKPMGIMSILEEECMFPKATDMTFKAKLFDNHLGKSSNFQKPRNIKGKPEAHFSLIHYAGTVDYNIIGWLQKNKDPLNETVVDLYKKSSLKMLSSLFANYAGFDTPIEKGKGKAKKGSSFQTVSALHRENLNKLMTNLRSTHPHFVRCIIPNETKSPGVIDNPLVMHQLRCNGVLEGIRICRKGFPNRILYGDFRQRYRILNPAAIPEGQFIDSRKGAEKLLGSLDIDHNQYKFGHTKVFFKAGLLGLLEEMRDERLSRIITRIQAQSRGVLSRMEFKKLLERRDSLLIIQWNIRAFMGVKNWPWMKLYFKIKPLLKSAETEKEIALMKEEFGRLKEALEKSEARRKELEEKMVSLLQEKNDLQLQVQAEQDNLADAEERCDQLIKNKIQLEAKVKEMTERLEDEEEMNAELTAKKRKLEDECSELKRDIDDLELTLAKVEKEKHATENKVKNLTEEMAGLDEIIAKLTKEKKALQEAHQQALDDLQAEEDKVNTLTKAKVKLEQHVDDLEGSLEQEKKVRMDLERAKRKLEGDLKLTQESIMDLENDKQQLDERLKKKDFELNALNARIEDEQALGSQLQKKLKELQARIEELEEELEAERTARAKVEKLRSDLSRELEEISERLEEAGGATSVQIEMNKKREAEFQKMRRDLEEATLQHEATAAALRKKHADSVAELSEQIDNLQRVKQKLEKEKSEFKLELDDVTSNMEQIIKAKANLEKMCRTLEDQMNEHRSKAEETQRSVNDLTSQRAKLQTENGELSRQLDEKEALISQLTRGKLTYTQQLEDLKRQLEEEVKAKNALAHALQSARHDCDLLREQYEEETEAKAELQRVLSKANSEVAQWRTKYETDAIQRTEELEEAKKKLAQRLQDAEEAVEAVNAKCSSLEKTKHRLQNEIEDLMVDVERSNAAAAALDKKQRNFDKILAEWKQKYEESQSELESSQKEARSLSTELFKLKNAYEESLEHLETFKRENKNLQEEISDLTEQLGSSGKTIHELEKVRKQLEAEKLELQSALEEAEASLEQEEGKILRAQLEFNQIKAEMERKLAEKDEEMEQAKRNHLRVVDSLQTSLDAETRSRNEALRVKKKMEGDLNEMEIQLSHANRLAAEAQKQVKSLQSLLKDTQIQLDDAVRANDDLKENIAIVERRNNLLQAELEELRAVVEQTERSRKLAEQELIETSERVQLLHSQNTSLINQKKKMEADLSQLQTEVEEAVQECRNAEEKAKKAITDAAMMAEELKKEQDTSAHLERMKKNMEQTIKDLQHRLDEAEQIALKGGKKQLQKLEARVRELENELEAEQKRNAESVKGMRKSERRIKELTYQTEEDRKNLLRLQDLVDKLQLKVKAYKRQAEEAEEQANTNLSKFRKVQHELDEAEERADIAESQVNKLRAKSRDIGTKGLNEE
bovine cardiac myosin, sequence (P85100 whole entry partner): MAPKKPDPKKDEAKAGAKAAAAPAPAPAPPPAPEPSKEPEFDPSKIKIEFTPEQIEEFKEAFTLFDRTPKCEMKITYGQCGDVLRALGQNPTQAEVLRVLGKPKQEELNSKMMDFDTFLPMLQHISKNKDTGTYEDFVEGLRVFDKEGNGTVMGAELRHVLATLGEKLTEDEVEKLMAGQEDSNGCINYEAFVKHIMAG
bovine cardiac myosin, sequence (Q3SZE5 whole entry partner): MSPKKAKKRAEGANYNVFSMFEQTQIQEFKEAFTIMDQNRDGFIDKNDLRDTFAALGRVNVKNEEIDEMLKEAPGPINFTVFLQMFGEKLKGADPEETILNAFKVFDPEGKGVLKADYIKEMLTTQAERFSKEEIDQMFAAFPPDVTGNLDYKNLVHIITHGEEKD

With `CC(C)(C1CCN(C(=O)Nc2ccc(Cl)nc2)CC1)S(=O)(=O)c1cccc(F)c1` [Compound 159, N-(6-chloropyridin-3-yl)-4-(2-((3-fluorophenyl)sulfonyl)propan-2-yl)piperidine-1-carboxamide], the “Myosin Activation (AC20)” value is given as “++ (++ represents myosin activation value AC20 from 2 μM-5 μM)”.

Consider `CC(C)(C1CCN(C(=O)Nc2ccnnc2)CC1)S(=O)(=O)c1ccccc1C#N` [Compound 204, 4-(2-((2-cyanophenyl)sulfonyl)propan-2-yl)-N-(pyridazin-4-yl)piperidine-1-carboxamide], for which the “Myosin Activation (AC20)” value is on record as “+ (+ represents myosin activation value AC20 > 5 μM)”.

With `CC(C)(C1CCN(C(=O)Nc2cncc(F)c2)CC1)S(=O)(=O)c1cccc(F)c1` [Compound 119, 4-(2-((3-fluorophenyl)sulfonyl)propan-2-yl)-N-(5-fluoropyridin-3-yl)piperidine-1-carboxamide], the “Myosin Activation (AC20)” value is “++ (++ represents myosin activation value AC20 from 2 μM-5 μM)”.

For `Cn1cc(S(=O)(=O)C(C)(C)C2CCN(C(=O)Nc3ccnnc3)CC2)cn1` [Compound 199, 4-(2-((1-methyl-1H-pyrazol-4-yl)sulfonyl)propan-2-yl)-N-(pyridazin-4-yl)piperidine-1-carboxamide], the “Myosin Activation (AC20)” value was “+ (+ represents myosin activation value AC20 > 5 μM)”.

As for `Cc1cc(NC(=O)N2CCC(C(C)(F)S(=O)(=O)c3cccc(F)c3)CC2)cnn1` (stereo not shown) [Compound 12, 4-(1-Fluoro-1-((3-fluorophenyl)sulfonyl)ethyl)-N-(6-methylpyridazin-4-yl)piperidine-1-carboxamide], the “Myosin Activation (AC20)” value is given as “+ (+ represents myosin activation value AC20 > 5 μM)”.

In the case of `Cn1cc(S(=O)(=O)C(C)(F)C2CCN(C(=O)Nc3ccon3)CC2)c(Cl)n1` (stereo not shown) [Compound 19, 4-(1-((3-Chloro-1-methyl-1H-pyrazol-4-yl)sulfonyl)-1-fluoroethyl)-N-(isoxazol-3-yl)piperidine-1-carboxamide], the “Myosin Activation (AC20)” value is “+ (+ represents myosin activation value AC20 > 5 μM)”.

Consider `COc1ccc(Cl)c(S(=O)(=O)C(F)(F)C2CCN(C(=O)Nc3ccnnc3)CC2)c1` [Compound 72, 4-(((2-chloro-5-methoxyphenyl)sulfonyl)difluoromethyl)-N-(pyridazin-4-yl)piperidine-1-carboxamide], for which the “Myosin Activation (AC20)” value is “+++ (+++ represents myosin activation value AC20 < 2 μM)”.

In the case of `CC(C)(C1CCN(C(=O)Nc2ccncc2)CC1)S(=O)(=O)c1ccccc1C#N` [Compound 209, 4-(2-((2-cyanophenyl)sulfonyl)propan-2-yl)-N-(pyridin-4-yl)piperidine-1-carboxamide], the “Myosin Activation (AC20)” value was “++ (++ represents myosin activation value AC20 from 2 μM-5 μM)”.

As for `CCn1nccc1S(=O)(=O)C(C)(C)C1CCN(C(=O)Nc2ccnnc2)CC1` [Compound 185, 4-(2-((1-ethyl-1H-pyrazol-5-yl)sulfonyl)propan-2-yl)-N-(pyridazin-4-yl)piperidine-1-carboxamide], the “Myosin Activation (AC20)” value was “+ (+ represents myosin activation value AC20 > 5 μM)”.

With `Cn1cc(S(=O)(=O)[C@@](C)(F)C2CCN(C(=O)Nc3ccc(C#N)nc3)CC2)c(C(F)F)n1` [Compound 299, (R)-N-(6-cyanopyridin-3-yl)-4-(1-((3-(difluoromethyl)-1-methyl-1H-pyrazol-4-yl)sulfonyl)-1-fluoroethyl)piperidine-1-carboxamide], the “Myosin Activation (AC20)” value was “+++ (+++ represents myosin activation value AC20 < 2 μM)”.

For `C[C@@](F)(C1CCN(C(=O)Nc2ccon2)CC1)S(=O)(=O)c1ccc(C(F)(F)F)nc1` [Compound 309, (S)-4-(1-fluoro-1-((6-(trifluoromethyl)pyridin-3-yl)sulfonyl)ethyl)-N-(isoxazol-3-yl)piperidine-1-carboxamide], the “Myosin Activation (AC20)” value is reported as “+ (+ represents myosin activation value AC20 > 5 μM)”.

`O=C(Nc1ccnnc1)N1CCC(C(F)(F)S(=O)(=O)c2cc(OC(F)(F)F)ccc2Cl)CC1` [Compound 74, 4-(((2-chloro-5-(trifluoromethoxy)phenyl)sulfonyl)difluoromethyl)-N-(pyridazin-4-yl)piperidine-1-carboxamide]: the “Myosin Activation (AC20)” value is recorded as “+++ (+++ represents myosin activation value AC20 < 2 μM)”.

As to `Cn1cc(S(=O)(=O)C(C)(F)C2CCN(C(=O)Nc3ccon3)CC2)c(C(F)(F)F)n1` (stereo not shown) [Compound 16, 4-(1-Fluoro-1-((1-methyl-3-(trifluoromethyl)-1H-pyrazol-4-yl)sulfonyl)ethyl)-N-(isoxazol-3-yl)piperidine-1-carboxamide], the “Myosin Activation (AC20)” value is given as “++ (++ represents myosin activation value AC20 from 2 μM-5 μM)”.

Turning to `C[C@](F)(C1CCN(C(=O)Nc2ccnc(C#N)c2)CC1)S(=O)(=O)c1cccc(F)c1` [Compound 293, (R)-N-(2-cyanopyridin-4-yl)-4-(1-fluoro-1-((3-fluorophenyl)sulfonyl)ethyl)piperidine-1-carboxamide], the “Myosin Activation (AC20)” value is “+ (+ represents myosin activation value AC20 > 5 μM)”.

As for `Cn1cc(S(=O)(=O)[C@](C)(F)C2CCN(C(=O)Nc3ccc(F)nc3)CC2)c(C(F)F)n1` [Compound 257, (S)-4-(1-((3-(difluoromethyl)-1-methyl-1H-pyrazol-4-yl)sulfonyl)-1-fluoroethyl)-N-(6-fluoropyridin-3-yl)piperidine-1-carboxamide], the “Myosin Activation (AC20)” value is reported as “+ (+ represents myosin activation value AC20 > 5 μM)”.

`[2H]C([2H])([2H])n1cc(S(=O)(=O)[C@@](F)(C2CCN(C(=O)Nc3ccon3)CC2)C([2H])([2H])[2H])c(C(F)F)n1` [Compound 306, (R)-4-(1-((3-(difluoromethyl)-1-(methyl-d3)-1H-pyrazol-4-yl)sulfonyl)-1-fluoroethyl-2,2,2-d3)-N-(isoxazol-3-yl)piperidine-1-carboxamide]: the “Myosin Activation (AC20)” value was “+++ (+++ represents myosin activation value AC20 < 2 μM)”.

With `CC(F)(C1CCN(C(=O)Nc2ccnnc2)CC1)S(=O)(=O)c1ccc(C#N)cc1` (stereo not shown) [Compound 270, 4-(1-((4-cyanophenyl)sulfonyl)-1-fluoroethyl)-N-(pyridazin-4-yl)piperidine-1-carboxamide], the “Myosin Activation (AC20)” value is listed as “+++ (+++ represents myosin activation value AC20 < 2 μM)”.

Take `Cn1nc(C(C)(C)C)cc1S(=O)(=O)C(F)(F)C1CCN(C(=O)Nc2ccnnc2)CC1` [Compound 89, 4-(((3-(tert-butyl)-1-methyl-1H-pyrazol-5-yl)sulfonyl)difluoromethyl)-N-(pyridazin-4-yl)piperidine-1-carboxamide]: the “Myosin Activation (AC20)” value is “+ (+ represents myosin activation value AC20 > 5 μM)”.

In the case of `CC(C)(C1CCN(C(=O)Nc2ccc(F)nc2)CC1)S(=O)(=O)c1ccc(C#N)cc1` [Compound 109, 4-(2-((4-cyanophenyl)sulfonyl)propan-2-yl)-N-(6-fluoropyridin-3-yl)piperidine-1-carboxamide], the “Myosin Activation (AC20)” value is reported as “+ (+ represents myosin activation value AC20 > 5 μM)”.

Regarding `Cn1nccc1S(=O)(=O)C(C)(F)C1CCN(C(=O)Nc2cccnc2)CC1` (stereo not shown) [Compound 227, 4-(1-fluoro-1-((1-methyl-1H-pyrazol-5-yl)sulfonyl)ethyl)-N-(pyridin-3-yl)piperidine-1-carboxamide], the “Myosin Activation (AC20)” value is “+ (+ represents myosin activation value AC20 > 5 μM)”.

Take `O=C(Nc1ccnnc1)N1CCC(C(F)(F)S(=O)(=O)c2ccc(O)nc2)CC1` [Compound 88, 4-(difluoro((6-hydroxypyridin-3-yl)sulfonyl)methyl)-N-(pyridazin-4-yl)piperidine-1-carboxamide]: the “Myosin Activation (AC20)” value was “+ (+ represents myosin activation value AC20 > 5 μM)”.

On to `C[C@](F)(C1CCN(C(=O)Nc2ccon2)CC1)S(=O)(=O)c1cccc(F)c1` [Compound 284, (R)-4-(1-fluoro-1-((3-fluorophenyl)sulfonyl)ethyl)-N-(isoxazol-3-yl)piperidine-1-carboxamide], for which the “Myosin Activation (AC20)” value is “+++ (+++ represents myosin activation value AC20 < 2 μM)”.

For `CC(C)(C1CCN(C(=O)Nc2cnns2)CC1)S(=O)(=O)c1cccc(F)c1` [Compound 211, 4-(2-((3-fluorophenyl)sulfonyl)propan-2-yl)-N-(1,2,3-thiadiazol-5-yl)piperidine-1-carboxamide], the “Myosin Activation (AC20)” value was “+++ (+++ represents myosin activation value AC20 < 2 μM)”.

Regarding `COc1ccc(NC(=O)N2CCC(C(C)(C)S(=O)(=O)c3cccc(F)c3)CC2)cn1` [Compound 161, 4-(2-((3-fluorophenyl)sulfonyl)propan-2-yl)-N-(6-methoxypyridin-3-yl)piperidine-1-carboxamide], the “Myosin Activation (AC20)” value was “+ (+ represents myosin activation value AC20 > 5 μM)”.

As for `Cc1cnc(NC(=O)N2CCC(C(C)(C)S(=O)(=O)c3cccc(F)c3)CC2)cn1` [Compound 125, 4-(2-((3-fluorophenyl)sulfonyl)propan-2-yl)-N-(5-methylpyrazin-2-yl)piperidine-1-carboxamide], the “Myosin Activation (AC20)” value is on record as “+ (+ represents myosin activation value AC20 > 5 μM)”.

`CC(C1CCN(C(=O)Nc2ccncc2)CC1)S(=O)(=O)c1cccc(F)c1` (stereo not shown) [Compound 31, 4-(1-((3-fluorophenyl)sulfonyl)ethyl)-N-(pyridin-4-yl)piperidine-1-carboxamide]: the “Myosin Activation (AC20)” value is “++ (++ represents myosin activation value AC20 from 2 μM-5 μM)”.

For the compound `Cn1nccc1S(=O)(=O)C(C)(C)C1CCN(C(=O)Nc2ccncc2)CC1` [Compound 194, 4-(2-((1-methyl-1H-pyrazol-5-yl)sulfonyl)propan-2-yl)-N-(pyridin-4-yl)piperidine-1-carboxamide], the “Myosin Activation (AC20)” value is given as “++ (++ represents myosin activation value AC20 from 2 μM-5 μM)”.

Consider `Cc1cc(S(=O)(=O)C(F)(F)C2CCN(C(=O)Nc3ccnnc3)CC2)n(C)n1` [Compound 23, 4-(((1,3-Dimethyl-1H-pyrazol-5-yl)sulfonyl)difluoromethyl)-N-(pyridazin-4-yl)piperidine-1-carboxamide], for which the “Myosin Activation (AC20)” value is “++ (++ represents myosin activation value AC20 from 2 μM-5 μM)”.
